Laboratory results published in US10934274B2, “Quinoline derivatives as TAM RTK inhibitors” (Qurient Co., Ltd., priority 2015, dated 2021).

How the values were obtained:
TYRO3 = target: T1, TYRO3 (Homo sapiens, UniProt Q06418); experiment: LanthaScreen Eu kinase binding assay, TYRO3; details: Tracer 236
T1 construct: purchased Life Technologies
T1 sequence (Q06418 41-890): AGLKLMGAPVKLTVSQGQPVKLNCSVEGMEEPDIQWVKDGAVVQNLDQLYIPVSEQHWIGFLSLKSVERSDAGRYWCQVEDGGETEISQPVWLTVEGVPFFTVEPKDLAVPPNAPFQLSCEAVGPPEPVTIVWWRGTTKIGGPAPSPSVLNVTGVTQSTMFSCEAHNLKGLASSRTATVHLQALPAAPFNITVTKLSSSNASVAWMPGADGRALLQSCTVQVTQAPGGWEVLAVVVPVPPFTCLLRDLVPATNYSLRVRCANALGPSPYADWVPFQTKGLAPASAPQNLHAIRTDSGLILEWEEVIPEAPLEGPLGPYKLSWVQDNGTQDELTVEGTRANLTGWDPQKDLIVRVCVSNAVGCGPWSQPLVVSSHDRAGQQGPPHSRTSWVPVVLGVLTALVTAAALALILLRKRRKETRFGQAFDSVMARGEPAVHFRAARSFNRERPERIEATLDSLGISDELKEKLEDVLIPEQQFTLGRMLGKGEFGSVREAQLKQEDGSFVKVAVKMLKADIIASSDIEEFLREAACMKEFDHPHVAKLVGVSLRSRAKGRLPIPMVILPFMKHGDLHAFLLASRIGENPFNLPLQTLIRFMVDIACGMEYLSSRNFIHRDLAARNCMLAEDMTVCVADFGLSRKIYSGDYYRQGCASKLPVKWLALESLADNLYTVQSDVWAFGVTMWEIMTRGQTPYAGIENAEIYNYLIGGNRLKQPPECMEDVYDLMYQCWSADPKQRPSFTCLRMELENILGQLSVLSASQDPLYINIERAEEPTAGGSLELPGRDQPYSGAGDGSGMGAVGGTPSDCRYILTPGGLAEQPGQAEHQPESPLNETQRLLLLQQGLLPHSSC

Axl = target: T2, Axl (Homo sapiens, UniProt P30530); experiment: LanthaScreen Eu kinase binding assay, Axl; details: Tracer 236
T2 construct: purchased Life Technologies
T2 sequence (P30530 26-894): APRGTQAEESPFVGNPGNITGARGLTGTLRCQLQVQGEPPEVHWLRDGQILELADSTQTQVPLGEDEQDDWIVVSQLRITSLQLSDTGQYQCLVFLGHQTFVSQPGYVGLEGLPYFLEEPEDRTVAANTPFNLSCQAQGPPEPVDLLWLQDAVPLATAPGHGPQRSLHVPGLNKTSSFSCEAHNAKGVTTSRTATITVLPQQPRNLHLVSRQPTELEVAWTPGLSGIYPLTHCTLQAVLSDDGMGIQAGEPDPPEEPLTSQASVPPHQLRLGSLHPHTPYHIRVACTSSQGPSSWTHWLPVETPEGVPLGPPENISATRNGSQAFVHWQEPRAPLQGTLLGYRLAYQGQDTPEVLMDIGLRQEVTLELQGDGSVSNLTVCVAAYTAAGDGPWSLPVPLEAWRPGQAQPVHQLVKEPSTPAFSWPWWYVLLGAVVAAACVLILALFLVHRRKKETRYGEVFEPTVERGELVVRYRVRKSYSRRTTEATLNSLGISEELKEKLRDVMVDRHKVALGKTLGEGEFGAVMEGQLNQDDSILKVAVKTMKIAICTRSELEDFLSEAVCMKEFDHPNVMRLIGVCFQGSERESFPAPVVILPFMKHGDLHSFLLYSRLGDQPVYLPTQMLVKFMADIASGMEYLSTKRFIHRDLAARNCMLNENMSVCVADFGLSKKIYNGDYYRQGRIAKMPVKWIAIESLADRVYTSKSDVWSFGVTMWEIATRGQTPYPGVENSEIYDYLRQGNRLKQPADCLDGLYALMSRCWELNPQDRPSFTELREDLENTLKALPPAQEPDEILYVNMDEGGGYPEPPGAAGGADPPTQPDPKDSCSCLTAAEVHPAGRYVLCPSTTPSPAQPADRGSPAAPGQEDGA

SMILES | Kd (TYRO3) | Kd (Axl)
CCOc1cn(C)nc1C(=O)Nc1ccc(Oc2ccnc3cc(OC)c(OC)cc23)cn1 [Compound 29] | 100 to 1000 nM | 100 to 1000 nM
CCOc1cnn(-c2ccco2)c1C(=O)Nc1ccc(Oc2ccnc3cc(OC)c(OC)cc23)cn1 [Compound 58] | 100 to 1000 nM | < 100 nM
CCOc1cn(-c2ccnnc2)nc1C(=O)Nc1ccc(Oc2ccnc3cc(OC)c(OC)cc23)cn1 [Compound 40] | ≥ 1000 nM | < 100 nM
CCOc1cn(-c2cnc(N)nc2)nc1C(=O)Nc1ccc(Oc2ccnc3cc(OC)c(OC(F)(F)F)cc23)cn1 [Compound 241] | ≥ 1000 nM | < 100 nM
CCOc1cn(-c2ccncc2Cl)nc1C(=O)Nc1ccc(Oc2ccnc3cc(OC)c(OC)cc23)cn1 [Compound 26] | 100 to 1000 nM | < 100 nM
CCOc1cn(-c2ccc(C#N)cn2)nc1C(=O)Nc1ccc(Oc2ccnc3cc(OC)c(OC)cc23)cn1 [Compound 43] | ≥ 1000 nM | ≥ 1000 nM
CCOc1cn(C(C)(C)C(=O)NC)nc1C(=O)Nc1ccc(Oc2ccnc3cc(OC)c(OC)cc23)cn1 [Compound 68] | ≥ 1000 nM | < 100 nM
CCOc1cnn(C2CCCN(C)C2)c1C(=O)Nc1ccc(Oc2ccnc3cc(OC)c(OC)cc23)cc1F (stereo not drawn) [Compound 213] | ≥ 1000 nM | ≥ 1000 nM
CCOc1cn(-c2cccs2)nc1C(=O)Nc1ccc(Oc2ccnc3cc(OC)c(OC)cc23)cn1 [Compound 17] | < 100 nM | < 100 nM
CCOc1cnn(-c2cccs2)c1C(=O)Nc1ccc(Oc2ccnc3cc(OC)c(OC)cc23)cn1 [Compound 20] | 100 to 1000 nM | < 100 nM
CCOc1cn(Cc2cnccn2)nc1C(=O)Nc1ccc(Oc2ccnc3cc(OC)c(OC)cc23)cc1F [Compound 215] | < 100 nM | < 100 nM
COc1cc2nccc(Oc3ccc(NC(=O)c4nn(-c5ccc(OC(F)(F)F)cc5Cl)cc4OCC4CC4)nc3)c2cc1OC [Compound 244] | < 100 nM | < 100 nM
CCOc1cnn(-c2ccsc2)c1C(=O)Nc1ccc(Oc2ccnc3cc(OC)c(OC)cc23)cn1 [Compound 21] | 100 to 1000 nM | < 100 nM
CCOc1cn(-c2cnccn2)nc1C(=O)Nc1ccc(Oc2ccnc3cc(OC)c(OC)cc23)cn1 [Compound 36] | < 100 nM | < 100 nM
COc1cc2nccc(Oc3ccc(NC(=O)c4nn(-c5cnc(N)nc5)cc4OCC(F)(F)F)nc3)c2cc1OC [Compound 237] | < 100 nM | < 100 nM
CCOc1cn(C2CCCN(C(C)=O)C2)nc1C(=O)Nc1ccc(Oc2ccnc3cc(OC)c(OC)cc23)cc1F (stereo not drawn) [Compound 224] | 100 to 1000 nM | < 100 nM
COc1cc2c(Oc3ccc(NC(=O)c4nn(-c5cnc(N)nc5)cc4OCC(F)(F)F)c(F)c3)ccnc2cc1OC(C)C [Compound 243] | < 100 nM | < 100 nM
CCOc1cn(-c2cccnc2C)nc1C(=O)Nc1ccc(Oc2ccnc3cc(OC)c(OC)cc23)cn1 [Compound 23] | < 100 nM | < 100 nM
CCOc1cn(C2CCN(C)C2)nc1C(=O)Nc1ccc(Oc2ccnc3cc(OC)c(OC)cc23)cc1F (stereo not drawn) [Compound 212] | 100 to 1000 nM | 100 to 1000 nM
COc1cc2nccc(Oc3ccc(NC(=O)c4nn(-c5cnc(N)nc5)cc4OC(C)C)nc3)c2cc1OC [Compound 260] | < 100 nM | < 100 nM
CCOc1cn(-c2cnccc2CCCN(C)C)nc1C(=O)Nc1ccc(Oc2ccnc3cc(OC)c(OC)cc23)cn1 [Compound 61] | < 100 nM | < 100 nM
CCOc1cn(-c2ccc(N(C)C)cc2Cl)nc1C(=O)Nc1ccc(Oc2ccnc3cc(OC)c(OC)cc23)cn1 [Compound 31] | ≥ 1000 nM | < 100 nM
COc1cc2nccc(Oc3ccc(NC(=O)c4nn(-c5cnc(N)cn5)cc4OCC4CC4)nc3)c2cc1OC [Compound 249] | < 100 nM | < 100 nM
CCOc1cn(-c2ccco2)nc1C(=O)Nc1ccc(Oc2ccnc3cc(OC)c(OC)cc23)cn1 [Compound 57] | < 100 nM | < 100 nM
COc1cc2nccc(Oc3ccc(NC(=O)c4nn(-c5cnc(Cl)cn5)cc4OCC(F)(F)F)nc3)c2cc1OC [Compound 236] | < 100 nM | < 100 nM
COc1cc2c(Oc3ccc(NC(=O)c4nn(-c5cnc(N)cn5)cc4OCC(F)(F)F)nc3)ccnc2cc1OC(C)C [Compound 253] | < 100 nM | < 100 nM

Further lines, results first:

Kd (TYRO3) | Kd (Axl) | SMILES
< 100 nM | < 100 nM | COc1cc2nccc(Oc3ccc(NC(=O)c4nn(-c5ccc(F)cc5F)cc4OCC4CC4)nc3)c2cc1OC [Compound 267]
< 100 nM | < 100 nM | CCOc1cn(CCOC)nc1C(=O)Nc1ccc(Oc2ccnc3cc(OC)c(OC)cc23)cn1 [Compound 64]
< 100 nM | < 100 nM | CCOc1cn(-c2ncco2)nc1C(=O)Nc1ccc(Oc2ccnc3cc(OC)c(OC)cc23)cn1 [Compound 59]
< 100 nM | < 100 nM | COc1cc2nccc(Oc3ccc(NC(=O)c4nn(-c5cnccc5C(F)(F)F)cc4OCC4CC4)nc3)c2cc1OC [Compound 247]
< 100 nM | < 100 nM | COc1cc2c(Oc3ccc(NC(=O)c4nn(-c5cnc(N)cn5)cc4OCC(F)(F)F)c(F)c3)ccnc2cc1OC(C)C [Compound 246]
< 100 nM | < 100 nM | CCOc1cn(CC2CCO2)nc1C(=O)Nc1ccc(Oc2ccnc3cc(OC)c(OC)cc23)cn1 (stereo not drawn) [Compound 48]
< 100 nM | < 100 nM | COc1cc2nccc(Oc3ccc(NC(=O)c4nn(-c5cnc(N)cn5)cc4OCC(F)(F)F)c(F)c3)c2cc1OC [Compound 252]
< 100 nM | < 100 nM | COc1cc2nccc(Oc3ccc(NC(=O)c4nn(-c5cnc(N)nc5)cc4OCC4CCC4)nc3)c2cc1OC [Compound 262]
< 100 nM | < 100 nM | CCOc1cn(-c2ccsc2)nc1C(=O)Nc1ccc(Oc2ccnc3cc(OC)c(OC)cc23)cn1 [Compound 18]
< 100 nM | < 100 nM | CCC(C)Oc1cc2nccc(Oc3ccc(NC(=O)c4nn(-c5cccnc5)cc4OCC(F)(F)F)nc3)c2cc1OC (stereo not drawn) [Compound 234]
< 100 nM | < 100 nM | COc1cc2nccc(Oc3ccc(NC(=O)c4nn(-c5cnc(N)cn5)cc4OCC(F)(F)F)nc3)c2cc1OC [Compound 248]
< 100 nM | < 100 nM | COc1cc2nccc(Oc3ccc(NC(=O)c4nn(-c5ccc(F)cc5N5CCOCC5)cc4OCC4CC4)nc3)c2cc1OC [Compound 266]
< 100 nM | < 100 nM | CCOc1cn(-c2ccn(C)c2)nc1C(=O)Nc1ccc(Oc2ccnc3cc(OC)c(OC)cc23)cn1 [Compound 56]
< 100 nM | < 100 nM | CCOc1sc(-c2cccnc2)nc1C(=O)Nc1ccc(Oc2ccnc3cc(OC)c(OC)cc23)cn1 [Compound 45]
< 100 nM | < 100 nM | COc1cc2nccc(Oc3ccc(NC(=O)c4nn(-c5cncnc5C5CC5)cc4OCC(F)(F)F)nc3)c2cc1OC [Compound 261]
< 100 nM | < 100 nM | COc1cc2nccc(Oc3ccc(NC(=O)c4nn(-c5ccc(F)c(C(C)=O)c5)cc4OCC4CC4)nc3)c2cc1OC [Compound 274]
< 100 nM | < 100 nM | CCOc1cn(-c2cnccc2C(C)(O)CO)nc1C(=O)Nc1ccc(Oc2ccnc3cc(OC)c(OC)cc23)cc1F (stereo not drawn) [Compound 227]
< 100 nM | < 100 nM | COc1cc2nccc(Oc3ccc(NC(=O)c4nn(-c5cccnc5)cc4OCC4CC4)nc3)c2cc1OC [Compound 255]
< 100 nM | < 100 nM | COc1cc2c(Oc3ccc(NC(=O)c4nn(-c5cnc(N)nc5)cc4OCC(F)(F)F)nc3)ccnc2cc1OC(C)C [Compound 257]
